Source: article PMC5564531, “Evaluation of radiofluorinated carboximidamides as potential IDO-targeted PET tracers for cancer imaging” (Oncotarget, 2017)

Experiments:
[1] = system: Hela, PANC02, HCT116, and 4T1 cells; assay: HeLa cell uptake of radioligands; assay type: cell-based
Method: HeLa cells were seeded in a 24 well culture plate at a density of 2 × 10^4 per well in 400 μL culture media w/ FBS (n=3). After overnight incubation (16 h), human IFN-γ (25ng/well, 50 ng/mL final concentration) in 100 μL DMEM with FBS were added into cells. The cells were rinsed with phosphate-buffered saline (PBS), 500 μL of Earle's Minimum Essential Medium (EMEM) (ATCC 30-2003), and 10 % fetal bovine serum was added to the culture wells. […] At each given time point, the cell supernatants were discarded and cells were washed 3 times with PBS (0.5 mL).

[2] = molecular target: T1, Human IDO (Homo sapiens, UniProt P14902); assay: IDO enzyme inhibition assay (kynurenine formation, absorbance 492 nm); assay type: biochemical; details: recombinant human IDO; mean of n ≥ 3, ± SD
T1 construct: purchased Enzo Life Sciences (enzolifesciences.com) ALX-201-333-C050
T1 sequence (P14902 whole entry): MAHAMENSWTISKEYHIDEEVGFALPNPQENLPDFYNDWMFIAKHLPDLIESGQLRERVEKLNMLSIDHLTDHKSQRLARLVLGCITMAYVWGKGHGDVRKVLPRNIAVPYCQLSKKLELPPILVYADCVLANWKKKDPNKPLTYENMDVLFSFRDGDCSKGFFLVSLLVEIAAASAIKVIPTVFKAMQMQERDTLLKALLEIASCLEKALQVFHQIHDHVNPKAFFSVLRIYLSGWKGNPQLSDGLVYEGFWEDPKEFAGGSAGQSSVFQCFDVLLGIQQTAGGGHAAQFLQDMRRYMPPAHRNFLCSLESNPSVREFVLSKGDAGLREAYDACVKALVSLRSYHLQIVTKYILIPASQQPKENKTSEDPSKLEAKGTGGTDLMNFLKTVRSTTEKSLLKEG
Method: (§1) The percent inhibition at individual concentrations was determined and the average values of duplicates were obtained. The data was processed using nonlinear regression to generate IC50 values (Prism Graphpad).

[3] = molecular target: T2, IDO1 in IFN-γ stimulated HeLa cells (Homo sapiens, UniProt P14902); assay: IDO HeLa cells assay (IFN-γ induced IDO activity, kynurenine in supernatant); assay type: cell-based; details: IFN-γ 50 ng/mL, 48 h incubation, read-out: Inhibition of IFN-γ induced IDO activity in HeLa cells (IC50)
T2 construct: native IDO1 in HeLa cells; endogenous in cells; host or cells: HeLa cells stimulated with human IFN-γ
T2 sequence (P14902 whole entry): as above
Method: as §1

[4] = rapid clearance rate; species and reference not given; cited from earlier work
[5] = system: IDO1; parameters: method as in PMID 19507862; details: in both biochemical and cellular assays; cited from earlier work
[6] = system: IDO1; parameters: method as in PMID 20197554, PMID 20124451; details: Phase I dose-escalation trial, generally well-tolerated doses; cited from earlier work
[7] = In vitro stability in mouse serum by radio-TLC; assay type: in vitro ADME; details: 37°C, 3 h
Method: Two-hundred microliter samples were collected at 3 h and analyzed by radio-TLC.

[8] = Lipophilicity, shake-flask method (n-octanol/PBS pH 7.4); assay type: physicochemical; details: n-octanol/buffer pH 7.4, n=3
Method: [^18F]IDO49 (2-30 kBq in 30μL of water) was added to a two-layer system of n-octanol (500 μL) and 0.1 M phosphate buffered saline (PBS) pH 7.4 (500 μL) in an Eppendorf vial. The vessel was vortexed for 3min and then centrifuged at 10,000 rpm for 2 min. An aliquot of each layer (100 μL) was assessed for radioactivity in a wipe counter. The partition coefficient (logD7.4) was calculated as the decimal logarithm of the ratio between the counted radioactivity in the n-octanol layer and the counted radioactivity in the aqueous layer (count of n-octanol sample – count of background) / (count of PBS sample – count of background). CLogP (calculated LogP) values were determined using CHEMBIODRAW ULTRA 12.0 software (Cambridge soft. Perkin-Elmer, Waltham, MA, USA).

[9] = molecular target: IDO1 in Hela cells (Homo sapiens, UniProt P14902); assay: Competitive cell-binding assay of [18F]IDO49 on IFN-γ treated HeLa cells; details: inhibitors 1-10000 nM, 30 min incubation
IDO1 in Hela cells, sequence (P14902 whole entry): as above

[10] = system: Hela tumor xenografts; assay: MicroPET imaging of HeLa tumor xenografts with rHu IFN-γ treatment; assay type: in vivo, mouse; details: 60 min postinjection, IFN-γ treated HeLa tumor bearing mice, p < 0.05
Method: Female athymic C57BL/6 nude mice (4-6 weeks old) were ordered from Charles River Laboratories (Stone Ridge, NY, U.S.A.) and housed in a temperature and humidity controlled room. After 7 to 14 days of acclimatization, a total of 5 ×10^6 Hela cells were inoculated subcutaneously in 200 μL serum-free medium into the right flank of hind leg. Once tumors reached an appropriate size (3-4 mm in diameter) the mice were randomized into 5 groups (4/group). Then the mice in each group were randomized into two subgroups (rHu IFN- γ treatment or no rHu IFN- γ treatment). All the rHu IFN- γ treatment mice were injected i.p. of 1.5×10^5 U rHu IFN- γ /mouse/day. Group one mice were anesthetized by gas inhalation (2% vol/vol isoflurane in oxygen) 24 h later. Then the mice were euthanized and tumor tissues were dissected for further IDO1 western blotting and IHC. The same operation was repeated at 48h, 72h, 96h and 120h points.
In order to evaluate the in vivo imaging performance of [^18F]IDO49 to IDO1 tumors, microPET imaging was performed on nude mice bearing Hela tumor xenografts with and without rHu IFN- γ treatment treatment using the Inveon small-animal PET/CT scanner (Siemens). Anesthesia was induced with 4− 5% isoflurane and maintained with 1− 3% isofluorane delivered with a mixed air/oxygen through a closed nose cone throughout the PET imaging session. […]

With `Cn1cc(C[C@H](N)C(=O)O)c2ccccc21` [1-L-MT, reference compound] as the molecule, how does the “effect on uptake of [18F]IDO5L by HeLa at 120 min” value ([1]; 1000 μM 1-L-MT, n=4) read?
The value was “strong inhibition”.

With `ON=C(Nc1ccc(F)c(Cl)c1)c1nonc1NCCF` [IDO49, N-(3-chloro-4-fluorophenyl)-4-((2-fluoroethyl)amino)-N'-hydroxy-1,2,5-oxadiazole-3-carboximidamide] as the molecule, how does the IC50 [2] read?
The IC50 was 95.5 ± 10.4 nM.

What about the IC50 [3] of the same molecule?
The IC50 was 11.9 nM.

With `NS(=O)(=O)NCCNc1nonc1C(=NO)Nc1ccc(F)c(Br)c1` [INCB024360] as the molecule, how does the “t1/2 (clearance rate)” value [4] read?
The value was less than 30 min.

And the “inhibition of IDO1 activity” value [6]?
Its value is “greater than 90%”.

What does the source list for `Nc1nonc1/C(=N/O)Nc1ccc([18F])c(Cl)c1` [[^18F]IDO5L]?
radioactivity in the intact radioligand [7]: > 95%; logD7.4 [8]: 2.13 ± 0.11; time of peak cellular uptake ([1]; Hela, PANC02, HCT116 and 4T1 cells, assayed at 30, 60, 120 mins, n=3): 60 min

Which “radioactivity in the intact radioligand” value [7] does the source give for `ON=C(Nc1ccc(F)c(Cl)c1)c1nonc1NCC[18F]` [[^18F]IDO49] here?
Its value is greater than 95%.

What about the “[18F]IDO49 uptake in Hela cells when co-incubated with NLG919 and INCB024360” value [9] of the same molecule?
The value was “decreased in a dose-dependent manner”.

What about the logD ([8]; n-octanol/PBS, read-out: logD7.4) of the same molecule?
Its logD is 1.37 ± 0.02.

What about the “tumor to muscle (T/M) uptake ratio, peak” value [10] of the same molecule?
The value was 2.29 ± 0.05.
